Source: a compilation of properties of binary mixtures (doi:10.1021/je100113r)

Experiment: xn = mol fraction of the nth substance listed
Conditions: 300 K, 101 kPa

| electrical conductivity (x2 = 0.201) [S/m] | electrical conductivity (x2 = 0.302) [S/m] | electrical conductivity (x2 = 0.502) [S/m] | electrical conductivity (x2 = 0.603) [S/m] | electrical conductivity (x2 = 0.802) [S/m] | electrical conductivity (x2 = 0.198) [S/m] | electrical conductivity (x2 = 0.498) [S/m] | electrical conductivity (x2 = 0.598) [S/m] | electrical conductivity (x2 = 0.503) [S/m] | SMILES |
| --- | --- | --- | --- | --- | --- | --- | --- | --- | --- |
| 0.0004 | 0.0004 | 0.0004 | 0.0004 | 0.0004 |  |  |  |  | CCCCCCCCCCCCCCCC[P+](CCCC)(CCCC)CCCC.[Br-] + O |
|  |  |  |  |  | 0.0003 | 0.0003 | 0.0004 |  | CCCCCCCCCCCCCCCC[P+](c1ccccc1)(c1ccccc1)c1ccccc1.[Br-] + O |
|  |  |  | 0.0006 |  |  |  |  | 0.002 | [Br-].[PH3+]CCCCCCCCCCCCCC(c1ccccc1)(c1ccccc1)c1ccccc1 + O |
